# Data: US20220163532A1, “NUCLEAR-DERIVED EXOSOMES AND METHODS OF USE THEREOF” (Board of Regents, The University of Texas System, priority 2019, published 2022)
# Test system: OVCAR-5 ovarian cancer model
# Assay: nExos in serum and ascites of OVCAR-5 tumor-bearing mice by imaging flow cytometry
# Type: in vivo, mouse
# Conditions: topotecan 7.5 mg/kg vs vehicle control
# Excerpt: Exosome staining for imaging flow cytometry and analysis. For quantitative analysis and imaging flow cytometry of exosomes, the method described by Erdbrugger et al. (2014) using an Amnis ImageStreamX MarkII analyzer was adapted. Briefly, 3×10^9 to 5×10^9 particles were isolated from either tissue culture cells, mouse serum and ascites, or serum obtained from patients with ovarian cancer and resuspended in PBS. Exosomes were placed in a sterile 1.5-ml Eppendorf tube and stained with CellMask Green Plasma Membrane (CMG) stain (1:250 dilution; C37608, Thermo Fisher Scientific) for 30 min at 37° C., protected from light. Exosomes were then washed to remove excess CMG by adding 2 ml of PBS and pelleted by ultracentrifugation at 40,000 rpm for 2 hours at 4° C. […]
# To stain for dsDNA, CMG-stained exosomes were co-stained with DRAQ5 (62254, Thermo Fisher Scientific) at either 1:50 dilution for biofluid exosome samples or 1:250 dilution for cell culture samples and were lightly agitated at RT for 1 hour, protected from light. Samples were then placed on ice, and images of single exosomes were detected using the 60× objective of an Amnis ImageStreamX MarkII analyzer. […] Particle size was estimated using Invitrogen Flow Cytometry Submicron Particle Size Reference Beads (F13839, Thermo Fisher Scientific), allowing exclusion of particles <150 nm based on the signal detected from side scatter. […]
compound,measurement,setting,value
CC[C@@]1(O)C(=O)OCc2c1cc1n(c2=O)Cc2cc3c(CN(C)C)c(O)ccc3nc2-1 [topotecan],nExos in ascites,"ascites, P=0.028",significant increase
same,nExos in serum,serum,no difference
